Source: patent US20260078120A1, “SUBSTITUTED PYRIDOPYRIMIDINONES” (MIRATI THERAPEUTICS, INC., priority 2022, published 2026)
Read-outs that look alike come from different tables or passages of the source.

Tests used:
[1] = test system: T47D (PI3Kα H1047R mutant) cells; assay: CellTiter-Glo 2.0 luminescent cell viability assay, 72 hours, T47D cells; assay type: cell-based; details: T47D (PI3Kα H1047R mutant) cells, CellTiter-Glo, approximately 72 hours, read-out: T47D (H1047R mutant) Viability IC50
Summary of the method: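 Cells seeded at 1000 per well overnight were dosed with a 10-concentration, 1:4 series starting at 10 µM and incubated ~72 h at 37° C. Viability was read by CellTiter-Glo 2.0 luminescence after 30 min at room temperature. IC50 came from four-parameter fits of percent vehicle control.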

[2] = test system: SKBR3 (PI3Kα wild type) cells; assay: CellTiter-Glo 2.0 luminescent cell viability assay, 72 hours, SKBR3 cells; assay type: cell-based; details: Homo sapiens, SK-BR-3, 72 h, SKBR3 (PI3Kα wild type) cells, CellTiter-Glo, approximately 72 hours; read-out: SKBR3 (WT) Viability IC50
Summary of the method: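 Viability measured via CTG luminescence following roughly 72 hours of compound exposure at 37° C. Dosing used a 10 um starting concentration diluted 1:4 over 10 points; percent-of-vehicle data fitted with a variable-slope four-parameter model for IC50.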

| IC50 ([1]; Homo sapiens, T47D, 72 h) [nM] | IC50 [2] [nM] | IC50 [1] [nM] | SMILES |
| --- | --- | --- | --- |
| 1100 | > 10000 | – | Cc1cc([C@H](C)OC(=O)c2nc(Cl)ccc2N)c2nc(N3CCCCC3)c(C#N)c(=O)n2c1 [Example 11-329, (S)-1-(3-cyano-7-methyl-4-oxo-2-(piperidin-1-yl)-4H-pyrido[1,2-a]pyrimidin-9-yl)ethyl 3-amino-6-chloropicolinate] |
| 1300 | > 10000 | – | COc1cccc(-c2cc(=O)n3cc(C)cc(C(C)Nc4ccccc4C(=O)O)c3n2)c1 (stereo not drawn) [Example 11-393, 2-((1-(2-(3-methoxyphenyl)-7-methyl-4-oxo-4H-pyrido[1,2-a]pyrimidin-9-yl)ethyl)amino)benzoic acid] |
| 1440 | 8970 | – | Cc1cc(C(C)Nc2ccccc2)c2nc(N3Cc4ccccc4C3)c(C#N)c(=O)n2c1 (stereo not drawn) [Example 11-302, 2-(isoindolin-2-yl)-7-methyl-4-oxo-9-(1-(phenylamino)ethyl)-4H-pyrido[1,2-a]pyrimidine-3-carbonitrile] |
| > 10000 | > 10000 | – | Cc1cc(C(C)Nc2ccccc2C(=O)O)c2nc(Nc3cccc(C#N)c3)cc(=O)n2c1 (stereo not drawn) [Example 11-339, 2-((1-(2-((3-cyanophenyl)amino)-7-methyl-4-oxo-4H-pyrido[1,2-a]pyrimidin-9-yl)ethyl)amino)benzoic acid] |
| – | > 10000 | 946 | Cc1cc([C@@H](C)Nc2ccc(F)nc2C(=O)O)c2nc(N3Cc4ccccc4C3)c(C)c(=O)n2c1 [Example 11-351, (R)-6-fluoro-3-((1-(2-(isoindolin-2-yl)-3,7-dimethyl-4-oxo-4H-pyrido[1,2-a]pyrimidin-9-yl)ethyl)amino)picolinic acid] |
| > 10000 | > 10000 | – | Cc1cc(C(C)Nc2ccccc2C(=O)O)c2nc(-c3ccccc3C#N)cc(=O)n2c1 (stereo not drawn) [Example 11-399, 2-((1-(2-(2-cyanophenyl)-7-methyl-4-oxo-4H-pyrido[1,2-a]pyrimidin-9-yl)ethyl)amino)benzoic acid] |
| > 10000 | > 10000 | – | CCC(Nc1ccccc1C(=O)O)c1cc(C)cn2c(=O)cc(N3CCCCC3)nc12 (stereo not drawn) [Example 11-411, 2-((1-(7-methyl-4-oxo-2-(piperidin-1-yl)-4H-pyrido[1,2-a]pyrimidin-9-yl)propyl)amino)benzoic acid] |
| 1050 | > 10000 | – | Cc1cc(C(C)Nc2ccccc2C(=O)O)c2nc(-c3ccncc3)cc(=O)n2c1 (stereo not drawn) [Example 11-400, 2-((1-(7-methyl-4-oxo-2-(pyridin-4-yl)-4H-pyrido[1,2-a]pyrimidin-9-yl)ethyl)amino)benzoic acid] |
| > 10000 | > 10000 | – | Cc1cc(C(C)Nc2ccccc2C(=O)O)c2nc(N3CCCC(O)C3)cc(=O)n2c1 (stereo not drawn) [Example 11-343, 2-((1-(2-(3-hydroxypiperidin-1-yl)-7-methyl-4-oxo-4H-pyrido[1,2-a]pyrimidin-9-yl)ethyl)amino)benzoic acid] |

The next lines start with the compound.

| SMILES | IC50 ([1]; Homo sapiens, T47D, 72 h) [nM] | IC50 [2] [nM] | IC50 [1] [nM] |
| --- | --- | --- | --- |
| Cc1cc([C@@H](C)Nc2ccc(C)nc2C(=O)O)c2nc(N3CCC(F)(F)CC3)c(C#N)c(=O)n2c1 [Example 10-17, (R)-3-((1-(3-cyano-2-(4,4-difluoropiperidin-1-yl)-7-methyl-4-oxo-4H-pyrido[1,2-a]pyrimidin-9-yl)ethyl)amino)-6-methylpicolinic acid] | 38.4 | > 10000 | – |
| Cc1cc([C@@H](C)Nc2ccc(Cl)cc2C(=O)O)c2nc(N3Cc4ccccc4C3)c(C)c(=O)n2c1 [Example 11-280, (R)-5-chloro-2-((1-(2-(isoindolin-2-yl)-3,7-dimethyl-4-oxo-4H-pyrido[1,2-a]pyrimidin-9-yl)ethyl)amino)benzoic acid] | 383 | > 10000 | – |
| Cc1cc([C@@H](C)Nc2ccccc2C(=O)O)c2nc(NCC3CC(F)(F)C3)c(C)c(=O)n2c1 [Example 11-199, (R)-2-((1-(2-(((3,3-difluorocyclobutyl)methyl)amino)-3,7-dimethyl-4-oxo-4H-pyrido[1,2-a]pyrimidin-9-yl)ethyl)amino)benzoic acid] | 498 | > 10000 | – |
| Cc1cc([C@@H](C)Nc2ccccc2C(=O)O)c2nc(N3CCNC(=O)C3)c(C#N)c(=O)n2c1 [Example 11-284, (R)-2-((1-(3-cyano-7-methyl-4-oxo-2-(3-oxopiperazin-1-yl)-4H-pyrido[1,2-a]pyrimidin-9-yl)ethyl)amino)benzoic acid] | > 10000 | > 10000 | – |
| Cc1cc([C@@H](C)Nc2ccccc2C(=O)O)c2nc(N3CCC(C)(C#N)CC3)c(C)c(=O)n2c1 [Example 11-69, (R)-2-((1-(2-(4-cyano-4-methylpiperidin-1-yl)-3,7-dimethyl-4-oxo-4H-pyrido[1,2-a]pyrimidin-9-yl)ethyl)amino)benzoic acid] | 168 | > 10000 | – |
| Cc1cc([C@@H](C)Nc2ccccc2C(=O)O)c2nc(N3CC[C@H]3C(F)(F)F)c(C)c(=O)n2c1 [Example 11-97, 2-(((R)-1-(3,7-dimethyl-4-oxo-2-((S)-2-(trifluoromethyl)azetidin-1-yl)-4H-pyrido[1,2-a]pyrimidin-9-yl)ethyl)amino)benzoic acid] | 309 | > 10000 | – |
| Cc1cc([C@@H](C)Nc2ccccc2C(=O)O)c2nc(-c3cccc(C(C)(C)C#N)c3)c(C)c(=O)n2c1 [Example 11-238, (R)-2-((1-(2-(3-(2-cyanopropan-2-yl)phenyl)-3,7-dimethyl-4-oxo-4H-pyrido[1,2-a]pyrimidin-9-yl)ethyl)amino)benzoic acid] | 310 | > 10000 | – |
| Cc1cc([C@@H](C)Nc2ccccc2C(=O)O)c2nc(N3CC4CC4(C(F)(F)F)C3)c(C)c(=O)n2c1 (stereo partly drawn) [Example 10-145, 2-(((1R)-1-(3,7-dimethyl-4-oxo-2-(1-(trifluoromethyl)-3-azabicyclo[3.1.0]hexan-3-yl)-4H-pyrido[1,2-a]pyrimidin-9-yl)ethyl)amino)benzoic acid] | 98.5 | > 10000 | – |
| Cc1cc([C@@H](C)Nc2ccccc2C(=O)O)c2nc(N3CCN(c4cccc(C#N)c4)CC3)c(C#N)c(=O)n2c1 [Example 11-225, (R)-2-((1-(3-cyano-2-(4-(3-cyanophenyl)piperazin-1-yl)-7-methyl-4-oxo-4H-pyrido[1,2-a]pyrimidin-9-yl)ethyl)amino)benzoic acid] | 144 | > 10000 | – |
| C[C@@H](Nc1ccccc1C(=O)O)c1cc(C2CC2)cn2c(=O)c(C#N)c(N3CCC(F)(F)CC3)nc12 [Example 10-83, (R)-2-((1-(3-cyano-7-cyclopropyl-2-(4,4-difluoropiperidin-1-yl)-4-oxo-4H-pyrido[1,2-a]pyrimidin-9-yl)ethyl)amino)benzoic acid] | 78.7 | > 10000 | – |
| Cc1cc([C@@H](C)Nc2ccccc2C(=O)O)c2nc(N3C[C@@H]4C[C@H]3CN4c3ccc(C#N)cc3)c(C)c(=O)n2c1 [Example 11-177, 2-(((R)-1-(2-((1S,4S)-5-(4-cyanophenyl)-2,5-diazabicyclo[2.2.1]heptan-2-yl)-3,7-dimethyl-4-oxo-4H-pyrido[1,2-a]pyrimidin-9-yl)ethyl)amino)benzoic acid] | 1570 | > 10000 | – |
| Cc1cc([C@@H](C)Nc2ccccc2C(=O)O)c2nc(N3CC4(CCN(c5ccc(C#N)cc5)CC4)C3)c(C#N)c(=O)n2c1 [Example 11-172, (R)-2-((1-(3-cyano-2-(7-(4-cyanophenyl)-2,7-diazaspiro[3.5]nonan-2-yl)-7-methyl-4-oxo-4H-pyrido[1,2-a]pyrimidin-9-yl)ethyl)amino)benzoic acid] | 210 | > 10000 | – |
| Cc1cc([C@@H](C)Nc2ccccc2C(=O)O)c2nc(N3CCC4(CC3)COC4)c(C#N)c(=O)n2c1 [Example 11-208, (R)-2-((1-(3-cyano-7-methyl-4-oxo-2-(2-oxa-7-azaspiro[3.5]nonan-7-yl)-4H-pyrido[1,2-a]pyrimidin-9-yl)ethyl)amino)benzoic acid] | 469 | > 10000 | – |
| Cc1cc([C@@H](C)Nc2ccccc2)c2nc(N3Cc4ccccc4C3)c(C#N)c(=O)n2c1 [Example 11-301, (R)-2-(isoindolin-2-yl)-7-methyl-4-oxo-9-(1-(phenylamino)ethyl)-4H-pyrido[1,2-a]pyrimidine-3-carbonitrile] | 9150 | 8820 | – |
| Cc1cc([C@@H](C)Nc2ccccc2C(=O)O)c2nc(N3CCC(c4ccccn4)C3)c(C)c(=O)n2c1 (stereo partly drawn) [Example 10-142, 2-(((1R)-1-(3,7-dimethyl-4-oxo-2-(3-(pyridin-2-yl)pyrrolidin-1-yl)-4H-pyrido[1,2-a]pyrimidin-9-yl)ethyl)amino)benzoic acid] | 80.1 | > 10000 | – |
| Cc1cc([C@@H](C)Nc2ccccc2C(=O)O)c2nc(N3CCN(C)CC3)c(C#N)c(=O)n2c1 [Example 11-295, (R)-2-((1-(3-cyano-7-methyl-2-(4-methylpiperazin-1-yl)-4-oxo-4H-pyrido[1,2-a]pyrimidin-9-yl)ethyl)amino)benzoic acid] | 503 | > 10000 | – |
| Cc1cc([C@@H](C)Nc2ccccc2C(=O)O)c2nc(N3CCC4(CC3)CC4(F)F)c(C)c(=O)n2c1 [Example 11-219, (R)-2-((1-(2-(1,1-difluoro-6-azaspiro[2.5]octan-6-yl)-3,7-dimethyl-4-oxo-4H-pyrido[1,2-a]pyrimidin-9-yl)ethyl)amino)benzoic acid] | 495 | > 10000 | – |
| Cc1cc([C@@H](C)Nc2ccccc2C(=O)O)c2nc(O[C@H]3CCOC3)c(C#N)c(=O)n2c1 [Example 11-248, 2-(((R)-1-(3-cyano-7-methyl-4-oxo-2-(((S)-tetrahydrofuran-3-yl)oxy)-4H-pyrido[1,2-a]pyrimidin-9-yl)ethyl)amino)benzoic acid] | 2200 | 4310 | – |
